# How the values were obtained:
# [1] = Volatility of perfuming compounds (Tables 4 to 10), with top/middle/bottom note type; type: physicochemical
# Method in brief: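 Volatility is expressed in μg/l in air. Top notes are 70,000 to 100 μg/l, middle notes 99 to 50 μg/l, and bottom notes 49 to 0.1 μg/l. Compounds are grouped by olfactive family: watery, green, fruity, citrus, sweet, gourmand and woody.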
# [2] = Odor threshold and odor value of perfuming compounds (Tables 4 to 10)
# [3] = note type (Top/Middle/Bottom) by volatility, perfuming compounds having a green note
# [4] = perfuming compounds having a green note
# [5] = Table 10, perfuming compounds having a woody note, note type by volatility
# [6] = Table 6, perfuming compounds having a fruity note
# [7] = Table 6, perfuming compounds having a fruity note, note type by volatility
# [8] = Table 8, perfuming compounds having a sweet note
# [9] = Table 8, perfuming compounds having a sweet note, note type by volatility
# [10] = Table 9, perfuming compounds having a gourmand note, note type by volatility
# [11] = Table 7, citrus note, top, middle or bottom note
# [12] = Table 7, citrus note, equals volatility divided by odor threshold
Compound,"Volatility [1, 6]","Type [1, 7]","Volatility [1, 8]","Type [1, 9]","Volatility ([1]; Table 9, gourmand note)","Type [1, 10]","Odor Threshold [2, 8]","Odor Value [2, 8]","Odor Threshold ([2]; Table 9, gourmand note)",further results
"CC/C=C\CC/C=C/C=O [(2E,6Z)-2,6-NONADIENAL]",–,–,–,–,–,–,–,–,–,"Type [1, 3]: Top; Volatility (μg/l air) [1, 4]: 632.43 μg/l air; Odor Threshold (μg/l air) [2, 4]: 1.46E−04 μg/l air"
CCCCC[C@@H]1C(=O)CC[C@@H]1CC(=O)OC,–,–,–,–,–,–,–,–,–,"Type [1, 5]: Bottom; Volatility ([1]; Table 10, woody note): 1.71 μg/l air; Odor Threshold ([2]; Table 10, woody note): 2.82E−04 μg/l air"
CC(C)CCOCCc1ccccc1 [3-METHYLBUTYL 2-PHENYLETHYL ETHER],110.11 μg/l air,"TOP (perfuming compounds having a volatility ranging from 70,000 to 100 μg/l in air are referred to as “top notes”)",110.11 μg/l air,Top,110.11 μg/l air,Top,1.38E−02 μg/l air,7.96E+03,1.38E−02 μg/l air,"Odor Threshold [2, 6]: 1.38E−02 μg/l air; Odor Value [2, 6]: 7.96E+03"
C=CC(C)CC(=O)CC(C)C (racemic),4203.89 μg/l air,"TOP (perfuming compounds having a volatility ranging from 70,000 to 100 μg/l in air are referred to as “top notes”)",–,–,–,–,–,–,–,"Volatility (μg/l air) ([1]; Table 7, citrus note): 4203.89 μg/l air; Type [1, 11]: Top; Odor Threshold (μg/l air) ([2]; Table 7, citrus note): 2.78E−01 μg/l air; Odor Value [2, 12]: 1.51E+04"
CCCCC(CC)C(=O)OC (racemic) [(+−)-methyl 2-ethylhexanoate],6677.64 μg/l air,"TOP (perfuming compounds having a volatility ranging from 70,000 to 100 μg/l in air are referred to as “top notes”)",–,–,–,–,–,–,–,"Type [1, 5]: Top; Volatility ([1]; Table 10, woody note): 6677.64 μg/l air; Odor Threshold ([2]; Table 10, woody note): 1.74E−01 μg/l air"
(+−)-3-(4-methyl-3-penten-1-yl)-3-cyclohexene-1-carbaldehyde (A) + (+−)-4-(4-methyl-3-penten-1-yl)-3-cyclohexene-1-carbaldehyde (B),–,–,–,–,–,–,–,–,–,"Volatility (μg/l air) ([1]; Table 4, watery note): 21.54 μg/l air; Type ([1]; Table 4, watery note, top, middle or bottom note): bottom (perfuming compounds having a volatility ranging from 49 to 0.1 μg/l in air are referred to as “bottom notes”); Odor Threshold (μg/l air) ([2]; Table 4, watery note): 3.68E−03 μg/l air; Odor Value ([2]; Table 4, watery note, equals volatility divided by odor threshold): 5.85E+03"
CC(=O)O[C@@H]1C(C)(C)CCC[C@]12CC=C(C)C[C@H]2C (racemic),–,–,–,–,–,–,–,–,–,"Type [1, 5]: Bottom; Volatility ([1]; Table 10, woody note): 8.25 μg/l air; Odor Threshold ([2]; Table 10, woody note): 3.79E−03 μg/l air"
C[C@@H]1CC[C@H]2[C@H](C)C(=O)O[C@@H]2C1,–,–,–,–,74.03 μg/l air,Middle,–,–,3.46E−05 μg/l air,–
C=CCCCCCCCCO [9-DECEN-1-OL],26.88 μg/l air,Bottom,–,–,–,–,–,–,–,"Volatility (μg/l air) ([1]; Table 7, citrus note): 26.88 μg/l air; Type [1, 11]: Bottom; Odor Threshold [2, 6]: 8.92E−03 μg/l air; Odor Value [2, 6]: 3.01E+03; Odor Threshold (μg/l air) ([2]; Table 7, citrus note): 8.92E−03 μg/l air; Odor Value [2, 12]: 3.01E+03"
C=C(C)CC(C)OC(=O)C(C)C (racemic),9902.98 μg/l air,"TOP (perfuming compounds having a volatility ranging from 70,000 to 100 μg/l in air are referred to as “top notes”)",9902.98 μg/l air,Top,9902.98 μg/l air,Top,2.26E−01 μg/l air,4.39E+04,2.26E−01 μg/l air,–
O=C(OCc1ccccc1)c1ccccc1 [BENZYL BENZOATE],0.85 μg/l air,Bottom,–,–,–,–,–,–,–,"Volatility (μg/l air) ([1]; Table 7, citrus note): 0.85 μg/l air; Type [1, 11]: Bottom; Odor Threshold [2, 6]: 3.67E−02 μg/l air; Odor Value [2, 6]: 2.31E+01; Odor Threshold (μg/l air) ([2]; Table 7, citrus note): 3.67E−02 μg/l air; Odor Value [2, 12]: 2.31E+01"
CC(=O)OCCc1ccccc1 [2-PHENYLETHYL ACETATE],201.26 μg/l air,"TOP (perfuming compounds having a volatility ranging from 70,000 to 100 μg/l in air are referred to as “top notes”)",201.26 μg/l air,Top,201.26 μg/l air,Top,2.14E−03 μg/l air,9.38E+04,2.14E−03 μg/l air,–
CCCCCC1CCCC1O (racemic) [(+−)-2-PENTYL-1-CYCLOPENTANOL],–,–,97.79 μg/l air,Middle,–,–,5.43E−03 μg/l air,1.80E+04,–,–
"CCOC(=O)CC1(C)OCCO1 [ETHYL 2-METHYL-1,3-DIOXOLANE-2-ACETATE]",479.20 μg/l air,"TOP (perfuming compounds having a volatility ranging from 70,000 to 100 μg/l in air are referred to as “top notes”)",479.20 μg/l air,Top,479.20 μg/l air,Top,1.62E−03 μg/l air,2.95E+05,1.62E−03 μg/l air,"Type [1, 3]: Top; Volatility (μg/l air) [1, 4]: 479.20 μg/l air; Odor Threshold (μg/l air) [2, 4]: 1.62E−03 μg/l air"

# From patent publication US20240301319A1, “PERFUMING COMPOSITIONS” (FIRMNICH SA, priority 2017, published 2024)
